Assay: Agilent ZORBAX 300 SB-C18, 150 × 1 mm, 3.5 µm; A: water + 0.01% heptafluorobutyric acid; B: acetonitrile + 0.01% heptafluorobutyric acid; gradient (min/%B) 0/0 100/90
Details: stereoisomer not certain

| SMILES | LC retention time [min] |
| --- | --- |
| CCOC(=O)C1C(C)=NC(=O)NC1C (configuration not stated) | 8.75 |
| CC(C)OC(=O)C(C)Nc1n[nH]c(=O)[nH]c1=O (configuration not stated) | 8.55 |
| CNC1CCCCC1 | 7.45 |
| Nc1ccc2c(c1)CCC2 | 8.35 |
| Cc1ccc(N)cc1C(=O)O | 7.34 |
| CC(=O)Nc1c(C)cc(C)cc1N | 7.92 |
| CN(C)CCCNCCCN(C)C | 7.49 |
| OCCNC1CCCCC1 | 7.24 |
| CCCCCCCCCn1cc[n+](CCCCCCCCC)c1C | 17.8 |
| CC(C)NC(=O)C(=O)NCCCO | 6.9 |
| COc1ccc2c(c1)C13CCCCC1C(C2)N(C)CC3 (configuration not stated) | 10.6 |
| CCN(CC)CCCN | 6.92 |
| CN1CCN(c2nc(N)cc(=O)[nH]2)CC1 | 5.8 |
| CC(C)CNCC(C)C | 8.04 |
| C1CNCCN1 | 6.38 |
| Cc1ccc(C)c(-c2cc(C)ncc2C)c1 | 10.6 |
| C[N+](C)(C)CCOP(=O)(O)OP(=O)(O)OCC1OC(n2ccc(N)nc2=O)C(O)C1O (configuration not stated) | 1.63 |
| CC1=CC(=O)C2CC1C2(C)C (configuration not stated) | 11.4 |
| Cc1cccc(N)c1N | 7.32 |
| CCOC(=O)c1ccc(NC(=O)CC(C)(C)C)cc1 | 14.8 |
| Cc1ccc(N(C)C)cc1 | 8.12 |
| COC(=O)c1ccc2[nH]c3c(c2c1)CCCC3 | 14.8 |

| SMILES | LC retention time [min] |
| --- | --- |
| c1cncc(-c2nnco2)c1 | 6.78 |
| CC(=O)OC1(C(C)=O)CCC2C3CC(C)C4=CC(=O)CCC4(C)C3CCC21C (configuration not stated) | 17 |
| CNCC(O)c1cccc(O)c1 (configuration not stated) | 7.2 |
| CC(=O)N(C)c1ccc(O)cc1 | 7.68 |
| Cc1cccc(-c2nc(=S)[nH][nH]2)c1 | 9.33 |
| CNCCCCCCN(C)CCCCCCNC | 7.6 |
| CCc1cnccn1 | 8.09 |
| CC(C)NCCO | 5.44 |
| CN1CCCC1 | 5.54 |
| O=P(O)(O)CN(CP(=O)(O)O)CP(=O)(O)O | 1.08 |
| Cc1ccc(-n2cnnn2)nc1 | 9.44 |
| Nc1cccnc1 | 5.54 |
| CCCOC(=O)C1CCCCN1 (configuration not stated) | 7.95 |
| Cc1ccoc1CC[N+](C)(C)C | 7.96 |
| NC1CCCCC1N (configuration not stated) | 7.01 |
| CCC(C)NC(C)CC (configuration not stated) | 8.16 |
| C#CC(C)(C)NC(C)=O | 6.79 |
| Cc1ncc[nH]1 | 4.53 |
| NCC(=O)CCC(=O)O | 3.25 |
| CC1CCN(C(=O)c2ccc(N)cc2)CC1 | 9.82 |
| CCN(CC)c1ccc(C(=O)NCC(C)C)cc1 | 11.7 |
| NCC(=O)c1ccccc1 | 7.35 |

| SMILES | LC retention time [min] |
| --- | --- |
| CC(=O)C1(O)CCC2C3C=CC4=CC(=O)CCC4(C)C3CCC21C (configuration not stated) | 13.8 |
| Cc1ccc(NC(=O)CCN2CCN(C)CC2)cc1 | 8.34 |
| c1ccc(C2CN3CCSC3=N2)cc1 (configuration not stated) | 8.73 |
| Cc1cccc(-n2c(C)nc3ccccc3c2=O)c1 | 11.9 |
| CC(C)CNC(=O)C(=O)Nc1ccc(N(C)C)cc1 | 9.98 |
| c1csc(CN2CCNCC2)c1 | 7.6 |
| Nc1ccccc1C(=O)NN=C1CCCC1 | 10.1 |
| CCOC(=O)CC(=O)Nc1ccc(C(=O)OC)cc1 | 11.1 |
| NC(CC(=O)O)c1ccccc1 (configuration not stated) | 5.59 |
| O=C(Cn1ccc(=O)[nH]c1=O)NCCO | 2.12 |
| Nc1cc(N)cc(C(=O)O)c1 | 4.34 |
| CC(C)(C)NC(=S)NCc1ccccc1 | 13.4 |
| CCCCCCCCCCCCCC(N)=O | 19.7 |
| CN1C(=O)C2CN(CCc3ccccc3)CNC2N(C)C1=O (configuration not stated) | 8.29 |
| Nc1ccncc1 | 5.68 |
| CNC(=S)Nc1c(C)cccc1C | 9.89 |
| COC(=O)Cn1ncccc1=O | 6.64 |
| CC(C)(C)c1ccc2[nH]c3c(c2c1)CCCC3=O | 16.5 |
| CC(C)NCCNC(C)C | 7.16 |
| CCCC(=O)Nc1ccc(N)cc1 | 7.75 |
| CNCCCc1cc(C)ccc1O | 8.44 |
| CCCc1cc(C(N)=O)ccn1 | 7.11 |

| SMILES | LC retention time [min] |
| --- | --- |
| CCn1c(C)n[nH]c1=S | 6.98 |
| O=c1cc[nH]c(=O)[nH]1 | 1.47 |
| CN(C)Cc1ccccc1 | 7.53 |
| NCCCCC(NC(CCc1ccccc1)C(=O)[O-])C(=O)N1CCCC1C(=O)O (configuration not stated) | 8.09 |
| Cc1c(O)c(=O)ccn1C | 6.47 |
| Nc1ccccc1N | 6.66 |
| CCN(CC)CCNC(=O)c1ccc(N)cc1 | 7.73 |
| c1cnc2nc[nH]c2c1 | 6.03 |
| CNC(=S)Nc1ccc2c(c1)CCCC2 | 12.5 |
| Cc1ncnc2nc[nH]c12 | 5.87 |
| Cc1ccc(NC2=NCCCS2)cc1 | 8.91 |
| COC(=O)CC1CN=C(N2CCCCC2)NC1=O (configuration not stated) | 7.95 |
| C=CCC1(C(C)CCC)C(=O)NC(=O)NC1=O (configuration not stated) | 11.4 |
| Cc1cc(C)nc(C)c1 | 7.46 |
| CC1=NN(Cc2c[nH]c3ccccc23)C(C)(C)C1 | 9.37 |
| CCC(C)C(N)C(=O)N1CCCC1C(=O)NC(C(=O)O)C(C)CC (configuration not stated) | 8.56 |
| Nc1ccn(CC(O)CO)c(=O)n1 (configuration not stated) | 4.4 |
| Cc1ccc(C)c(NC(=O)C(=O)NCC(C)O)c1 (configuration not stated) | 10.5 |
| CC(C)CNC(=O)C(=O)NC1CC(C)(C)NC(C)(C)C1 | 8.6 |
| Cc1cnc2c(ccc3c(C)c(C)cnc32)c1C | 9.85 |

Further lines, results first:

| LC retention time [min] | SMILES |
| --- | --- |
| 11.6 | O=C(O)CC(CNC(=O)CCCCCN1C(=O)c2ccccc2C1=O)c1ccccc1 (configuration not stated) |
| 18.9 | COc1ccc(Oc2ccc(-n3c(C)ccc3C)cc2)cc1 |
| 9.18 | C(=Cc1cccs1)c1ccccn1 |
| 9.16 | CC1=NC(=Cc2ccccc2)C(=O)O1 |
| 9.25 | NC(=O)c1ccc(NC(=S)Nc2ccccc2)cc1 |
| 16.5 | CCc1ccc(NCCC(=O)c2ccc(C(C)(C)C)cc2)cc1 |
| 11.3 | Cc1ccc(-c2nn(CC(=O)Nc3cccnc3)c(=O)c3ccccc23)cc1 |
| 14.4 | c1ccc2c(Sc3nccc4ccccc34)nccc2c1 |
| 7.13 | COC1=CC(=O)C(=O)C=C1OC |
| 12 | c1ccc(-c2cc(N3CCCCC3)c3ccccc3n2)cc1 |
| 11.8 | OC(Cn1cccc1)c1ccccc1 (configuration not stated) |
| 9.58 | O=C1NC(Cc2c[nH]c3ccccc23)C(=O)NC1Cc1c[nH]c2ccccc12 (configuration not stated) |
| 13.8 | CCN(CC)c1ccc(C2Nc3ccccc3C(CC)(CC)O2)cc1 (configuration not stated) |
| 9.93 | Cc1[nH]c2ccccc2c1Cc1nc2ccccc2[nH]1 |
| 14.5 | O=C(C=Cc1ccco1)c1ccccc1 |
| 15.2 | O=c1c(Cc2ccccc2)c(O)c2ccccc2n1Cc1ccccc1 |
| 8.72 | O=C1NCC2(CCN(CCc3ccccc3)CC2)O1 |
| 9.01 | c1ccc(-c2nc3ccccc3[nH]2)cc1 |
| 8.71 | Cc1cccc(Nc2cc(=O)[nH]c(=O)[nH]2)c1C |
| 19.2 | COc1ccccc1NC(=O)c1ccc(COc2ccc3c(c2)CCC3)cc1 |
| 10.9 | Nc1c2c(nc3ccccc13)N(C1CCCCC1)CC2 |
| 15.8 | CN(c1nc(-c2ccc(C(C)(C)C)cc2)nc2ccccc12)C1CCCCC1 |
| 10.9 | Cc1nc2ccccc2nc1C=O |
| 8.66 | NC(=O)CNC(=O)c1ccc2ccccc2n1 |
| 9.62 | Cc1cccc(NC(=O)c2ccc3nccnc3c2)n1 |
| 7.08 | CC(c1ccccc1)C(N)C(=O)O (configuration not stated) |

| LC retention time [min] | SMILES |
| --- | --- |
| 13.8 | COc1ccc(C=Cc2nc(=O)c3ccccc3o2)cc1 |
| 7.65 | Cn1c(=O)c2ccccc2n(CCN)c1=O |
| 8.37 | c1ccc2c(-n3ccnc3)nccc2c1 |
| 7.26 | NC1Cc2ccccc2NC1=O (configuration not stated) |
| 12.2 | CN(C)C=CC(=O)c1ccc2ccccc2c1 |
| 12 | Cc1nn(-c2ccc(NC(=O)c3ccco3)cc2)c(=O)c2ccccc12 |
| 7.75 | CC(=O)Nc1ccc(Cc2ccncc2)cc1 |
| 13.7 | CN(C)c1ccc(C=C2Nc3ccccc3C2=O)cc1 |
| 11.3 | Cc1ccc(-c2csc(-c3cccnc3)n2)cc1C |
| 12.8 | S=C(Nc1cccnc1)N(CCc1ccccc1)Cc1ccccc1 |
| 16.3 | O=C(NCCc1ccc2oc3ccccc3c2c1)C1CCCCC1 |
| 7.88 | CCc1nc2ccccc2[nH]1 |
| 17.4 | Cc1ccc(-c2cnc3ccccc3n2)c(C)c1 |
| 8.96 | O=C(NN=Cc1ccccc1)c1ccncc1 |
| 12.1 | Cc1cc(-c2ccccc2)cc(-c2ccccc2)n1 |
| 10.9 | CN(C)CCOC(c1ccccc1)c1ccccc1 |
| 12.9 | Cc1ccc(C)n1-c1cccc(C(=O)O)c1 |
| 9.64 | Cc1ccc2cc(C(=O)O)c(=O)[nH]c2c1 |
| 8.25 | CC1(C)CC(O)N=C1c1ccccc1 (configuration not stated) |
| 8.82 | Cc1cc(C)c(NC(=O)Nc2ccccc2)c(C)n1 |
| 8.76 | CCc1c(C)nc2c(O)cccn2c1=O |
| 10.4 | Cc1cccc(Nc2cc(C)nc3ccccc23)c1 |
| 12.8 | Cc1nc2ccccc2nc1CSc1cccc2cccnc12 |
| 5.51 | Cc1cc(C(=O)O)c2ccccc2n1 |
| 10.2 | COc1ccc(NC(=O)Nc2ccc(OC)c(OC)c2)cc1OC |

— the RepoRT retention time repository
